Legend:
[1] = target: T1, hPPARα (Homo sapiens, UniProt Q07869); assay: PPAR/Gal4 chimera luciferase reporter transactivation assay in transiently transfected Cos-7 cells (hPPARα); format: cell-based
T1 sequence (Q07869 167-468): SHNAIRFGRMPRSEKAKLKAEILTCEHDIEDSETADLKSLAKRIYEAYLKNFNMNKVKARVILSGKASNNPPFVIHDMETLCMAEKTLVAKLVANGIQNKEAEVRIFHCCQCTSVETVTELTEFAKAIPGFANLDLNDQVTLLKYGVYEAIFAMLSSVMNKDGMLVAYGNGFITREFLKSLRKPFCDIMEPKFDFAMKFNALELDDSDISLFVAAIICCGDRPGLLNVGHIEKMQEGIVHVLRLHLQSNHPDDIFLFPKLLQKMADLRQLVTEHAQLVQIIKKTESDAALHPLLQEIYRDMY
Procedure: (§1) The cells were maintained under standard culture conditions (Dulbecco modified minimum essential Eagle medium, DMEM) supplemented with 10% fetal calf serum (FCS) at 37°C in 5% […] CO2 atmosphere. The medium was changed every 2 days. The Cos-7 cells were seeded in 60 mm discs at a density of 5.5 × 10^5 cells/disc in DMEM supplemented with 10% FCS and incubated at 37°C for 16 h before transfection. The cells were transfected in DMEM using jetPEI, with reporter (pG5-TK-pGL3) and expression (pGal4-h, hPPARα or hPPARγ) plasmids. The expression plasmid pCMV-β-galactosidase was cotransfected as a control for transfection efficacy. After 16 h the transfection was stopped adding DMEM supplemented with 10% FCS, and the cells were trypsinised and seeded in 96-well plates and incubated for 6 h in DMEM containing 10% FCS. Subsequently, the cells were incubated for 24 h in DMEM containing 0.2% FCS and increasing concentrations of the compounds or the vehicle (DMSO, maximum concentration 0.1%) were tested. Finally, the cells were washed once with PBS cooled on ice, lysed and the luciferase and β-galactosidase assays were performed.
(§2) To evaluate the compounds for PPAR transcriptional activity, the tests were conducted in a PPAR/Gal4 chimera of a human luciferase reporter gene to determine the maximum transactivation response of each compound.

[2] = target: T2, hPPARγ (Homo sapiens, UniProt P37231); assay: PPAR/Gal4 chimera luciferase reporter transactivation assay in transiently transfected Cos-7 cells (hPPARγ); format: cell-based
T2 sequence (P37231 238-505): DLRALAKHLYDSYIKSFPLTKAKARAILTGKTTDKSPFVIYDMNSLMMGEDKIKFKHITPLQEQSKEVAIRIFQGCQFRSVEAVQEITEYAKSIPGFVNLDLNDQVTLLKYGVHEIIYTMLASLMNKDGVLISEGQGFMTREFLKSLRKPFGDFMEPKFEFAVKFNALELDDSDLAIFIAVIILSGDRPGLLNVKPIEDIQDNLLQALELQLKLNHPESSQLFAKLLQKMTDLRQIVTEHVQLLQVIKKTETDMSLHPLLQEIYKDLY
Procedure: as §1, §2

[3] = test system: mononuclear cell adhesion to HUVEC induced by TNFα; assay: Parallel flow chamber: mononuclear cell adhesion to TNFα-stimulated HUVEC; format: cell-based, human
Procedure: The parallel flow camera technique was used, which allows viewing cell adhesion under dynamic physiological flow conditions.
In the execution of this study, neutrophils and mononuclear cells were perfused through monolayers of HUVEC previously stimulated, or not, with TNFα (20 ng/mL) for 24 h. For this purpose, the neutrophils and human mononuclear cells were obtained in suspension from healthy volunteers by the Ficoll-Hypaque method, centrifuging by density gradient. Freshly isolated cells (1 × 10^6/mL) were perfused through the monolayer of endothelial cells (HUVEC) stimulated, or not, with TNFα for 24 h. In all the experiments the interactions of the leukocytes were determined after being perfused for 5 min at 0.5 dyne/cm^2. The HUVEC plates were placed in the flow chamber (GlycoTech, Gaithersburg, MD) and a camera was coupled to a phase-contrast inverted microscope (Axio Observer A1 Carl Zeiss microscope, Thornwood, NY) to view cell adhesion (20x lens and 10x eyepiece). In addition, the images were recorded on video for subsequent analysis.

[4] = test system: ICAM-1; assay: Flow cytometry of TNFα-induced ICAM-1 expression in HUVEC; format: cell-based, human; details: TNFα 20 ng/mL 24 h
Procedure: (§3) The cells were collected from the flasks using accutase (StemPro® Accutase® Cell Dissociation Reagent, ThermoFischer Scientific, Waltham, MA).
(§4) Then they were washed and incubated for 1 h with a APC-conjugated mAb antibody against human VCAM-1 (100 µg/mL; clone STA, BioLegend, San Diego, CA), a FITC- conjugated mAb against human ICAM-1 (400 µg/mL; clone HA58, BioLegend, San Diego, CA), a PE-conjugated mAb against human CX3CL1 (1.25 µg/mL; clone 51637, R&D Systems, Minneapolis, MN) or with a APC-conjugated mAb antibody against human CXCL16 (clone 256213, R&D Systems, Abingdon, UK), all at a dilution of 1:25 in 3% BSA/PBS. The samples were analyzed using a BD FACSVerse Flow Cytometer (BD Biosciences, San Jose, CA).

[5] = test system: VCAM-1; assay: Flow cytometry of TNFα-induced VCAM-1 expression in HUVEC; format: cell-based, human; details: TNFα 20 ng/mL 24 h
Procedure: as §3, §4

[6] = test system: CX3CL1; assay: Flow cytometry of TNFα-induced CX3CL1 (fractalkine) expression in HUVEC; format: cell-based
Procedure: as §3, §4

[7] = test system: p38 MAPK; assay: Flow cytometry of TNFα-induced p38 MAPK phosphorylation in HUVEC; format: cell-based, human; details: TNFα 20 ng/mL 1 h
Procedure: (§5) HUVEC were previously incubated for 24 h with compound 1 (10 µM), for use according to the present invention, or with compound 9 (3 µM), of the invention, and stimulated for 1 h with TNFα (20 ng/mL). The endothelial cells were fixed with BD Cytofix Fixation Buffer (BD Biosciences, San Jose, CA) and permeabilized with BD Sol Perm III solution (BD Biosciences, San Jose, CA) and sequentially stained with a 1:10 dilution of a PE-conjugated mAb antibody against human p65 (pS529, clone K10-895.12.50; BD Biosciences, San Jose, CA) and a 1:10 dilution of Alexa Fluor-conjugated mAb antibody against human p38 MAPK ([…], clone 36/p38; BD Biosciences, San Jose, CA). The cells were analyzed with a BD FACSVerse flow cytometer (BD Biosciences, San Jose, CA).

[8] = test system: NF-κB (p65); assay: Flow cytometry of TNFα-induced p65 (NF-κB) phosphorylation in HUVEC; format: cell-based, human; details: TNFα 20 ng/mL 1 h
Procedure: as §5

[9] = test system: ob/ob mice; assay: Treatment of ob/ob mice: blood glucose; format: in vivo
Procedure: This study used male ob/ob mice (C57BU6J) (Charles River laboratories, Chatillon-sur-Chalaronne, France).
The mice were housed in individual cages in a room with controlled temperature, humidity and light. […] The mice were allowed to acclimate for ten days prior to the study.
The control ob/ob mice were just administered with vehicle (physiological saline solution with HEC 1%). […] The compounds were prepared freshly each day in a 1% suspension of HEC for oral administration. Randomization was performed based on the glycaemia values on day 0. For the duration of the experiment the amount of food ingested and the body weight were determined daily for each mouse. Every day between 9:00 and 11:00 a.m. (prior to treatment) blood glucose levels were measured using (Contour next USB Blood glucose meter, BAYER, Basel, Switzerland).

[10] = ratio of IC50, mononuclear cell adhesion

Structure (SMILES): CCOC(=O)CCC(C)=CCCC1(C)CCc2cc(OCc3ccc(F)cc3)ccc2O1 (centres unmarked) [Compound 9]
- hPPARα Efficacy (%) ([1]; maximum activity as percentage of the maximum activity of WY-14643): 251%
- EC50 ([1]; read-out: hPPARα EC50, Cos-7 cells, 24 h, tested 0.001 to 10 µM): 0.3 µM
- hPPARγ Efficacy (%) ([2]; maximum activity as percentage of the maximum activity of rosiglitazone): 57%
- EC50 ([2]; read-out: hPPARγ EC50, Cos-7 cells, 24 h, tested 0.001 to 10 µM): 0.4 µM
- potency times greater than polycerasoidol [3, 10]: ~16
- potency times greater than rosiglitazone [3, 10]: approximately 3.6
- expression of ICAM-1 induced by TNFα ([4]; 3 µM): but not ICAM-1
- expression of VCAM-1 induced by TNFα ([5]; 3 µM): significant decrease
- expression of CX3CL1 induced by TNFα ([6]; 3 µM, TNFα 20 ng/mL 24 h): significant decrease
- decrease of the activation of p38 MAPK ([7]; 3 µM): 71.9%
- activation of NF-κB induced by TNFα ([8]; 3 µM): inhibit significantly
- glucose blood level, day 0 (before treatment) ([9]; group given 30 mg/Kg/d): 261 mg/dL
- glucose blood level after 4 days ([9]; oral, 30 mg/Kg/d): 194 mg/dL
- decrease in glucose blood levels compared to day 0 ([9]; oral, 30 mg/Kg/d, after 4 days): 20%

Structure (SMILES): C/C(=C\CCC1(C)CCc2cc(O)cc(C)c2O1)CC/C=C(\C)C(=O)O (centres unmarked) [Polycerasoidol, 1, polycerasoidol]
- Emax ([1]; COS-7, read-out: hPPARα Efficacy (%)): 107%
- Emax ([2]; COS-7, read-out: hPPARγ Efficacy (%)): 95%
- IC50 ([3]; Homo sapiens, HUVEC, pretreatment 20 h, TNFα 20 ng/mL 24 h, perfusion 5 min at 0.5 dyn/cm2, read-out: IC50 adhesion of HUVEC-mononuclear cells): 4.9 µM
- times less potent than rosiglitazone [3, 10]: 5
- inhibition of ICAM-1 expression induced by TNFα ([4]; 10 µM, 20 h pretreatment): 23.8%
- inhibition of VCAM-1 expression induced by TNFα ([5]; 10 µM, 20 h pretreatment): 87.8%
- reduced the expression of fractalkine (CX3CL1) ([6]; 10 µM, TNFα 24 h): 77.6%
- decrease of the activation of p38 MAPK ([7]; 10 µM): 63.4%
- activation of NF-κB induced by TNFα ([8]; 10 µM): inhibit significantly

Reference: patent publication EP3733658B1, “PRENYLATED BENZOPYRANES AS PPAR AGONISTS” (Universitat de València, priority 2017, dated 2019)
